Assay results from the supplement of paper PMC4932681.

Tests used:
Test in all cases: viability inhibition at highest dose (% inhibition); higher = more growth inhibition
BT-474 Tam1 = conditions: 4-OH-tamoxifen in medium 1 µM; 72 h
Method: (§1)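 Percent inhibition of viability (CellTiter-Glo, 72 h) at the highest tested concentration (D5), normalised to DMSO (0%) and 100 µM benzethonium chloride (100%). Resistant lines and the 'in 1µM tamoxifen' arms were tested in 1 µM 4-OH-tamoxifen.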

BT-474 Tam2 = conditions: 4-OH-tamoxifen in medium 1 µM; 72 h
Method: as §1

BT-474 = conditions: 72 h
Method: as §1

MCF-7 Tam1 = conditions: 4-OH-tamoxifen in medium 1 µM; 72 h
Method: as §1

MCF-7 = conditions: 72 h
Method: as §1

T-47D Tam1 = conditions: 4-OH-tamoxifen in medium 1 µM; 72 h
Method: as §1

T-47D Tam2 = conditions: 4-OH-tamoxifen in medium 1 µM; 72 h
Method: as §1

T-47D = conditions: 72 h
Method: as §1

ZR-75-1 Tam1 = conditions: 4-OH-tamoxifen in medium 1 µM; 72 h
Method: as §1

ZR-75-1 Tam2 = conditions: 4-OH-tamoxifen in medium 1 µM; 72 h
Method: as §1

ZR-75-1 = conditions: 72 h
Method: as §1

| SMILES | viability inhibition at highest dose (BT-474 Tam1) | viability inhibition at highest dose (BT-474 Tam2) | viability inhibition at highest dose (BT-474; 4-OH-tamoxifen in medium 0 µM) | viability inhibition at highest dose (BT-474; 4-OH-tamoxifen in medium 1 µM) | viability inhibition at highest dose (MCF-7 Tam1) | viability inhibition at highest dose (MCF-7; 4-OH-tamoxifen in medium 0 µM) | viability inhibition at highest dose (MCF-7; 4-OH-tamoxifen in medium 1 µM) | viability inhibition at highest dose (T-47D Tam1) | viability inhibition at highest dose (T-47D Tam2) | viability inhibition at highest dose (T-47D; 4-OH-tamoxifen in medium 0 µM) | viability inhibition at highest dose (T-47D; 4-OH-tamoxifen in medium 1 µM) | viability inhibition at highest dose (ZR-75-1 Tam1) | viability inhibition at highest dose (ZR-75-1 Tam2) | viability inhibition at highest dose (ZR-75-1; 4-OH-tamoxifen in medium 0 µM) | viability inhibition at highest dose (ZR-75-1; 4-OH-tamoxifen in medium 1 µM) |
| --- | --- | --- | --- | --- | --- | --- | --- | --- | --- | --- | --- | --- | --- | --- | --- |
| CCCCCOC(=O)Nc1nc(=O)n([C@@H]2O[C@H](C)[C@@H](O)[C@H]2O)cc1F [Capecitabine] (drug 10000 nM) | 0.103 | -6.54 | -9.89 | -7.23 | -12 | -4.69 | -0.939 | 1.61 | 2.81 | -17.6 | -17 | 11.1 | 7.55 | 24.8 | 0.654 |
| Nc1nc(Cl)nc2c1ncn2[C@@H]1O[C@H](CO)[C@@H](O)[C@@H]1F [Clofarabine] (drug 10000 nM) | -21.8 | -3.66 | -7.9 | -34.5 | -1.02 | 32.2 | 10.4 | 38.6 | 27.8 | 35.1 | 43 | 23.6 | 22.2 | 21.8 | 14.8 |
| O=P(O)(O)C(O)(Cn1ccnc1)P(=O)(O)O [Zoledronic acid] (drug 10000 nM) | 2.75 | -6.19 | -0.0303 | -3.42 | -6.7 | -12.6 | -12.2 | -5.82 | 1.06 | -11.4 | -6.56 | -0.251 | -9.06 | -6.71 | -4.06 |
| Cn1c(=O)c(F)c(Nc2ccc(I)cc2F)c2c(=O)n(C[C@@H](O)CO)cnc21 [TAK-733] (drug 1000 nM) | 7.81 | 14.3 | 3.01 | 18.7 | 13.8 | 16.8 | 22.9 | 25.4 | 16.5 | -7.47 | -14.5 | 0.97 | -5.15 | -7.07 | -1.35 |
| CN(C)C[C@@H]1CCn2cc(c3ccccc32)C2=C(C(=O)NC2=O)c2cn(c3ccccc23)CCO1 (drug 10000 nM) | 100 | 98 | 76 | 101 | 22.1 | 99.8 | 69.5 | 71.2 | 70.2 | 72.1 | 97.4 | 37.7 | 47.1 | 45.5 | 70.9 |
| CN(C)CCOc1ccc(/C(=C(/CCCl)c2ccccc2)c2ccccc2)cc1 [Toremifene (citrate)] (drug 10000 nM) | 95.2 | 99.1 | 25.6 | 82.9 | 35.5 | 19.2 | 69.3 | 45.2 | 62 | 9.04 | 1.56 | 18.3 | 25.1 | 3.59 | 24.4 |
| CC[C@H](Nc1ncnc2[nH]cnc12)c1nc2cccc(F)c2c(=O)n1-c1ccccc1 [CAL-101] (drug 10000 nM) | 8.87 | 5.84 | 4.44 | 17 | -0.638 | 22.4 | 21.3 | 24.5 | 33.6 | 15.2 | 13.7 | 50.8 | 57.3 | 45.9 | 45 |
| CC[C@]1(O)C[C@@H]2CN(CCc3c([nH]c4ccccc34)[C@@](C(=O)OC)(c3cc4c(cc3OC)N(C)[C@H]3[C@@](O)(C(=O)OC)[C@H](OC(C)=O)[C@]5(CC)C=CCN6CC[C@]43[C@@H]65)C2)C1 [Vinblastine] (drug 1000 nM) | 88 | 91.8 | 43.3 | 87.4 | 19.6 | 51.4 | 57.6 | 55.2 | 57.8 | 14.7 | 22.2 | 30.2 | 35.9 | 24.6 | 34.4 |
| CO[C@H]1/C=C\C=C(/C)C(=O)NC2=CC(=O)C(NCCN(C)C)=C(C[C@@H](C)C[C@H](OC)[C@H](O)[C@@H](C)/C=C(\C)[C@@H]1OC(N)=O)C2=O [Alvespimycin (17-DMAG)] (drug 1000 nM) | 78.3 | 68.2 | 49 | 76.7 | 30.2 | 65 | 47.8 | 35 | 49.2 | 49.9 | 37.1 | 32.9 | 44.1 | 32.7 | 47 |
| CC(C)n1nc(-c2ccc3oc(N)nc3c2)c2c(N)ncnc21 [INK128] (drug 1000 nM) | 72.6 | 44.1 | 36.7 | 62.9 | 35.9 | 70.3 | 52.4 | 58.8 | 36.7 | 66.7 | 46.4 | 52.7 | 66 | 61.2 | 51.9 |
| Nc1nc2[nH]cc(CCc3ccc(C(=O)N[C@@H](CCC(=O)O)C(=O)O)cc3)c2c(=O)[nH]1 [Pemetrexed] (drug 10000 nM) | -2.78 | 4.1 | -2.99 | -11.2 | -1.81 | -15.5 | 14.3 | -2.82 | 9.3 | -12.4 | 8.3 | 1.51 | -6.3 | -12.7 | -4.01 |
| Cc1ccc(C(=O)Nc2ccc(CN3CCN(C)CC3)c(C(F)(F)F)c2)cc1C#Cc1cnc2cccnn12 (drug 1000 nM) | 35.9 | 6 | -2.54 | 36.2 | 12.7 | 11.5 | 25.9 | 70.1 | 37.9 | 20.5 | 33.7 | 12.3 | 12 | 3.08 | 12 |
| C[C@H]1C[C@@H]2[C@H]([C@@H](O)C[C@@]3(C)[C@H]2CC[C@]3(O)C(=O)CO)[C@@]2(C)C=CC(=O)C=C12 [Methylprednisolone] (drug 10000 nM) | -9.86 | -2.3 | -7.44 | -20.6 | -0.753 | -1.81 | 18.4 | -1.09 | 8.67 | -19.3 | -15.1 | 6.19 | 0.244 | -6.28 | -4.27 |
| COc1ccc(-c2ccc3c(N4CCOC[C@@H]4C)nc(N4CCOC[C@@H]4C)nc3n2)cc1CO [AZD8055] (drug 10000 nM) | 80.1 | 56.1 | 43.2 | 77.2 | 34.5 | 72.4 | 56.5 | 54.4 | 58.3 | 61 | 55.9 | 57.3 | 61 | 60 | 50.2 |
| Cc1ccc(Nc2nccc(N(C)c3ccc4c(C)n(C)nc4c3)n2)cc1S(N)(=O)=O [Pazopanib] (drug 10000 nM) | 23.6 | 7.37 | -2.15 | -6.21 | 1.65 | 8.65 | 16.4 | 4.97 | 23.6 | 12.7 | -6.23 | 6.13 | 10.8 | -3.01 | 11.1 |
| C[C@]12C=CC(=O)C=C1CC[C@@H]1[C@@H]2C(=O)C[C@@]2(C)[C@H]1CC[C@]2(O)C(=O)CO [Prednisone] (drug 10000 nM) | 0.805 | -4.01 | -5.13 | -15.9 | -6.7 | 4.17 | -2.57 | 0.12 | 6.96 | -2.36 | -14.5 | -0.823 | 5.99 | -12.2 | -9.15 |
| CN1CC[C@H](c2c(O)cc(O)c3c(=O)cc(-c4ccccc4Cl)oc23)[C@H](O)C1 [Alvocidib (Flavopiridol)] (drug 10000 nM) | 96.8 | 89.5 | 9.07 | 46.1 | 30.1 | 62.9 | 65 | 57.8 | 38.7 | 29.3 | -0.409 | 49.9 | 55.9 | 50.1 | 46.6 |
| N#CC[C@H](C1CCCC1)n1cc(-c2ncnc3[nH]ccc23)cn1 (drug 10000 nM) | -28.1 | -31.9 | -21.3 | -53.3 | -11.4 | 1.33 | -20.6 | -14.3 | -5.81 | -12.9 | -14.9 | -14.2 | -7.38 | -0.421 | -1.41 |
| CC(=O)O[C@@]12CO[C@@H]1C[C@H](O)[C@@]1(C)C(=O)[C@H](O)C3=C(C)[C@@H](OC(=O)[C@H](O)[C@@H](NC(=O)OC(C)(C)C)c4ccccc4)C[C@@](O)([C@@H](OC(=O)c4ccccc4)[C@H]21)C3(C)C [Docetaxel] (drug 1000 nM) | 38.1 | 13.4 | 45.8 | 62.5 | -2.6 | 31.6 | 24.3 | 27.5 | 37.3 | 44.4 | 8.26 | 6.28 | 1.01 | -2.11 | 1.03 |
| C=CC(=O)Nc1cc2c(Nc3ccc(F)c(Cl)c3)ncnc2cc1OCCCN1CCOCC1 [Canertinib] (drug 10000 nM) | 90 | 93.5 | 80.1 | 92.3 | 28 | 64.2 | 71.1 | 46.6 | 63.2 | 38.9 | 24.2 | 37.1 | 44.3 | 41.4 | 35.5 |
| CC(=O)Nc1cccc(-n2c(=O)n(C3CC3)c(=O)c3c(Nc4ccc(I)cc4F)n(C)c(=O)c(C)c32)c1 (drug 250 nM) | 8.35 | -15.8 | -8.37 | 18.2 | 10.6 | 2.23 | 17.3 | 12.5 | 26.5 | -2.33 | 10.4 | 2.29 | 1.99 | -3.05 | 5.16 |
| C#Cc1cccc(Nc2ncnc3cc(OCCOC)c(OCCOC)cc23)c1 [Erlotinib] (drug 10000 nM) | 94.4 | 87.1 | 43 | 94.5 | 12.5 | 4.3 | 0.353 | 39.8 | 40 | 20.8 | 9 | 14.6 | 10.9 | 3.58 | 12.2 |
| CCCC(CCC)C(=O)O [Valproic acid] (drug 10000 nM) | 4.24 | -2.85 | -9.64 | -2.48 | 1.78 | -31.2 | -5.39 | 1.44 | 24.2 | -15.5 | 12.5 | 3.1 | -3.03 | -14.3 | 1.2 |
| O=C1CN2Cc3c(ccc(Cl)c3Cl)N=C2N1 [Anagrelide] (drug 10000 nM) | 2.18 | 3.44 | -9.3 | -22.2 | -9.28 | -21.2 | 2.74 | 8.7 | -2.05 | -25.6 | -12.9 | 0.528 | -5.88 | -12.6 | -4.05 |
| O=C1CCC(N2C(=O)c3ccccc3C2=O)C(=O)N1 (stereo not given) [Thalidomide] (drug 10000 nM) | 2.81 | 1.4 | 2.41 | 13.6 | 4.57 | 1.74 | 5.08 | 0.973 | 4.15 | 0.793 | 10.3 | 6.53 | -1.28 | 5.91 | 12 |
| CS(=O)(=O)CCNCc1ccc(-c2ccc3ncnc(Nc4ccc(OCc5cccc(F)c5)c(Cl)c4)c3c2)o1 [Lapatinib] (drug 1000 nM) | 96.8 | 96.2 | 76.6 | 95.8 | 0.111 | 6.77 | 17.5 | 14.6 | 16.8 | 5.41 | -0.526 | 5.35 | -5.73 | 0.392 | -2.73 |
